Measurements reported in publication PMC7539967, “The Plasmodium falciparum eIK1 kinase (PfeIK1) is central for melatonin synchronization in the human malaria parasite. Melatotosil blocks melatonin action on parasite cell cycle” (Journal of Pineal Research, 2020).

Legend:
[1] = test system: Plasmodium falciparum 3D7; experiment: In vitro growth assay and flow cytometry analysis (72 h), 3D7; type: cell-based; conditions: Plasmodium falciparum, 3D7, 72 h, read-out: IC50 (µM) 3D7 strain
Protocol: (§1) Red blood cells infected with P. falciparum 3D7 or PfeIK1^‐ (iRBC) with 0.3 % initial parasitemia and 1% hematocrit were incubated with different concentrations of compounds Tripbenz (4), Triptosil (5), Triptiofen (6), Tripfuroila (7), and Tripcicloexil (8) ranging from 0.107 to 110 µM, and compounds Melatobenz (9), Melatotosil (10), Melatofuroila (11), and Melatocicloexil (12) ranging from 0.1 to 100 µM for 72 hours at 37°C under mixture of gases. The control group was treated with solvent dimethyl sulfoxide (DMSO) (v/v), with the highest concentration of solvent 0.14%. Chloroquine was used as positive control with concentrations ranging from 0.244 to 250 nM. Parasitemia was determined from dot plots (side scatter versus fluorescence) of at least 10^3 cells acquired on a FACSCalibur flow cytometer using […] software (Becton Dickinson) or an Accuri C6 flow cytometer (Becton Dickinson). Initial gating was carried out with unstained, uninfected erythrocytes to account for erythrocyte auto fluorescence. The concentration responsible for 50% inhibition (IC50) was determined from the compound concentration‐response curve determined with the software GraphPad Prism 6.
(§2) For assays with antimalarials, iRBC were incubated with different concentrations of Atovaquone ranging from 0.02 to 24 nM, or Artemisinin 0.15‐160 nM.
(§3) After 72 hours, iRBC were stained with nucleic acid marker SYBR Green I (1X) (Invitrogen) and mitochondria marker based on membrane potential MitoTracker Deep Red (50 nM) (Invitrogen), and incubated for 20 minutes at 37°C. Final parasitemia was obtained by flow cytometer using a BD Accuri C6 Flow Cytometer, collecting 10^4 cells. Parasitemia was determined by dot plots using FlowJo 5 software.
(§4) At least three independent experiments were performed in triplicate to calculate the IC50 values for each drug.

[2] = test system: Plasmodium falciparum 3D7; experiment: Effect of compounds on melatonin action on parasitemia, 3D7; type: cell-based; conditions: 3D7, 500 nM compound + 100 nM melatonin, 48 h
Protocol: (§5) To evaluate the effect of the compounds on melatonin action on parasitemia, iRBC were incubated with 500 nM of compounds for 10 minutes and then along with 100 nM of melatonin for 48 hours at 37°C under mixture of gases.
(§6) After 48 hours, iRBC were double‐stained ^34 with nucleic acid marker SYBR Green I (1X) and mitochondria marker, based on membrane potential, MitoTracker Deep Red (50 nM), and incubated for 20 minutes at 37°C.
(§7) Final parasitemia was obtained by flow cytometer using an Accuri C6 flow cytometer (Becton Dickinson), collecting 10^4 cells. Parasitemia was determined by dot plots using FlowJo 5 software.

[3] = test system: Plasmodium falciparum 3D7; experiment: Effect of indole compounds in parasitemia (48 h), 3D7; type: cell-based
Protocol: (§8) Red blood cells infected (iRBC) with 3D7 or PfeIK1^‐ (iRBC) with 1% initial parasitemia and 2% hematocrit were incubated with 500 nM of the synthetic indole compounds or 100 nM Melatonin for 48 hours at 37°C under mixture of gases. ^12 The control group received 0.0013% of solvent dimethyl sulfoxide (DMSO).
as §6, §7

[4] = test system: P. falciparum GCaMP3 parasites; experiment: Calcium assay in transgenic PfGCaMP3 parasites; type: cell-based, Plasmodium falciparum; conditions: 500 nM
Protocol: Calcium assays were performed using the transgenic P. falciparum GCaMP3 parasites. ^37 PfGCaMP3 cultures were synchronized at least three times with 5% sorbitol before starting the experiments, and parasitemia was maintained between 5% and 8%. PfGCaMP3 parasites were cultivated with 10 nM/mL of WR for selection. Parasites were isolated with saponin (0.016%) and collected by centrifugation 8000 rpm, subsequently washed twice with buffer M, and allowed to settle in a four‐well plate for microscope coated with poly‐L‐lysine for 30 minutes at 37°C with 5% CO2 in buffer M ([…], 5.4 mM KCl, 0.8 mM MgSO4, 5.5 mMD‐glucose, 50 mM MOPS, and 2 mM CaCl2, pH 7.2). The compounds used for measuring calcium assays were as follows: Melatotosil and Triptiofen solubilized in DMSO.
Images were captured using a Nikon Eclipse Ti2 inverted microscope with FITC filter. Images were collected every 10 seconds for 5 minutes, with NIS‐Elements Ar 5.11.01 from Nikon using 60× lens. All experiments were performed at least three independent times in duplicates.

P. falciparum PfeIK1^‐ [5] = experiment: Effect of indole compounds in parasitemia (48 h), PfeIK1 knockout; type: cell-based; conditions: Plasmodium falciparum, read-out: final parasitemia normalized to control
Protocol: as §8, §6, §7

P. falciparum PfeIK1^‐ [6] = experiment: Effect of compounds on melatonin action on parasitemia, PfeIK1 knockout; type: cell-based, Plasmodium falciparum; conditions: 500 nM compound + 100 nM melatonin, 48 h, normalized to control
Protocol: as §5, §6, §7

P. falciparum (3D7) = experiment: Microscopy evaluation of blood-stage development (Giemsa smears); type: cell-based, Plasmodium falciparum; conditions: for parasites in segmented schizont stage: 48 h, 3D7, Giemsa smears
Protocol: Plasmodium falciparum (3D7) cultures were synchronized by three rounds of 5% sorbitol treatment for 1 hour. ^35 Parasites at ring stage with initial 1% parasitemia and 2% hematocrit were incubated with Triptiofen (6) at concentrations of 1 and 10 µM in 24‐well plates for 48 hours at 37°C under mixture of gases. The DMSO solvent (0.1%) was used as a control. Smears of infected erythrocytes stained with Giemsa were performed at regular intervals (0, 12, 24, 36 and 48 hours after treatment). ^36 Parasite images were acquired under a light microscope (Zeiss) with 100× magnification to assess the parasite's blood development stages. The parasitemia at the end of the experiment was quantified for comparison between groups. Three independent experiments were performed in triplicate. Data were analyzed using software GraphPad Prism 6.

[7] = test system: Human Embryonic Kidney cells (HEK293); experiment: Cytotoxicity Assay in HEK293 cells (MTT); type: cell-based; conditions: 0.107 to 110 µM, 72 h
Protocol: To evaluate toxicity of the new indole compounds in mammalian cells, Human Embryonic Kidney cells (HEK293) were maintained in 75 cm^2 culture flasks (Greiner Bio‐One) at 37°C, 5%CO2 in […] (DMEM), supplemented with 10% fetal bovine serum, NaHCO33.7 g/L (Sigma), 100 U/mL penicillin/, and 100 μg/mL streptomycin in monolayers.
Cells were plated in flat‐bottom 96‐well plates in a density of 10^4 cells per well and incubated for 24 hours in 150 µL media at 37°C, 5%CO2. Cells were then treated with different concentrations of each compound, ranging from 0.107 to 110 µM in 200 µL DMEM for 72 hours at 37°C and 5%CO2. Cells treated with DMSO (v/v) with the highest concentration of solvent 0.14% were used as control.
After incubation, 40 µL of MTT reagent (solution 5 mg/mL in PBS) was added to each well, and cells were incubated for further 3 hours at 37°C and 5% CO2. The media were removed and 100 µL of DMSO was added in each well. Plates were agitated in a shaker for 10 minutes to dissolve precipitates. Absorbance was read at 570 nm in a FlexStation 3 (Molecular Devices). Six experiments were performed independently in triplicates.

P. falciparum PfeIK1^‐ [8] = experiment: In vitro growth assay and flow cytometry analysis (72 h), PfeIK1 knockout; type: cell-based, Plasmodium falciparum; conditions: Plasmodium falciparum, read-out: IC50 (µM) PfelK1^‐ strain
Protocol: as §1, §2, §3, §4

[9] = test system: pfeik1 gene expression in P. falciparum 3D7; experiment: Quantitative real-time PCR of pfeik1 expression; type: cell-based, Plasmodium falciparum; conditions: 100 nM melatonin, 4 h
Protocol: For these experiments, P. falciparum 3D7 culture was synchronized with 5% sorbitol and parasites collected in the three stages: ring (14 hours); trophozoite (30 hours); and schizont (44 hours), at 4% parasitemia. Parasites were treated with 100 nM Melatonin or 0.00005% ethanol (control) and left for 4 hours before RNA extraction with Trizol (Invitrogen). RNA purified with ionic exchange columns with DNAse using RNAse‐free DNAse set (Qiagen) and RNeasy Mini Kit (Qiagen) and quantified in a UV‐Vis NanoDrop 2000c (Thermo Scientific). Three independent experiments were performed in triplicates.
cDNA syntheses were performed using random primers and Superscript II reverse transcriptase (Invitrogen) according to the manufacturer’s protocol. SYBR Green (Applied Biosystems) was used in quantitative real‐time PCR on a 7300 Real‐Time PCR System (Applied Biosystems). Amplification was carried out as follow: on step 50°C for 2 min and 95°C for 10 min for enzyme activation followed by 40 cycles of 95°C for 0.15 min for denaturation and 60°C for 1 min for annealing/extension. The primers used were as follows: PF14_0423‐Fwd […] and PF14_0423‐Rvs […].
Changes in relative expression were determined by 2^‐ΔΔCt or transforming the threshold cycle in absolute number of mRNA. […]

| Structure (SMILES) | IC50 [1] | ability to abolish the increase in parasitemia triggered by melatonin [2] | decrease in parasitemia compared to treatment with the hormone only [2] | parasitemia normalized to control, compound along with melatonin [2] | activity at 0.5 µM ([3]; Plasmodium falciparum, 3D7, 500 nM compound, read-out: final parasitemia normalized to control) | cytosolic calcium rise ([4]; PfGCaMP3) | Fmax/F0 (maximum fluorescence normalized to baseline) ([4]; PfGCaMP3, 120 cells) | activity at 0.5 µM (P. falciparum PfeIK1^‐ [5]) | final parasitemia, compound along with melatonin (P. falciparum PfeIK1^‐ [6]) | parasites in segmented schizont stage (P. falciparum (3D7); 1 µM) | parasites in segmented schizont stage (P. falciparum (3D7); 10 µM) | number of parasites compared to control (P. falciparum (3D7); 1 and 10 µM, starting at 36 hours, 3D7) | toxicity in HEK293 cells [7] | IC50 (P. falciparum PfeIK1^‐ [8]) | increase in parasitemia ([3]; 3D7, 100 nM melatonin) | parasitemia normalized to control, hormone only ([3]; 3D7, 100 nM melatonin) | decrease in pfeik1 expression compared to control ([9]; ring stage) | pfeik1 expression vs solvent ([9]; trophozoite and schizont stages) |
| --- | --- | --- | --- | --- | --- | --- | --- | --- | --- | --- | --- | --- | --- | --- | --- | --- | --- | --- |
| O=C(NCCc1c[nH]c2ccccc12)c1ccc(Br)s1 [Triptiofen (6), N‐(2‐(1H‐indol‐3‐yl) ethyl)‐5‐bromothiophene‐2‐carboxamide] | 9.76 ± 0.6 µM | able to abolish | 10% | 100.1% | 99.8% | does not trigger a significant cytosolic calcium rise | 1.11 ± 0.008 | 98.7% | 104.1 ± 1.87% | 1.33 ± 0.33 | 2.22 ± 0.32 | significantly reduces | no toxicity | 11.8 ± 0.6 µM | – | – | – | – |
| COc1ccc2[nH]cc(CCNC(C)=O)c2c1 [melatonin, N‐acetyl‐ 5‐methoxytryptamine] | – | – | – | – | – | – | – | – | – | – | – | – | – | – | approximately 10% | 110% | 40% | no significant difference |
